{"source": "paper PMC5702336", "about": "“Critical Role of Hepatic Cyp450s in the Testis-Specific Toxicity of (5R)-5-Hydroxytriptolide in C57BL/6 Mice” (Frontiers in Pharmacology, 2017)", "note": "Entries after “also recorded” stand apart in the source; their conditions may differ."}
{"system": "rat liver microsomes", "assay": "Chemical inhibition study of LLDT-8 metabolism with selective CYP inhibitors", "type": "in vitro ADME", "conditions": "LLDT-8 2 μM, 0.5 and 1 h, residual LLDT-8 by LC-MS/MS", "experimental": "The chemical inhibition assay was performed as previously reported (Li et al., [2008]). A 400 μl typical incubation mixture contained 0.2 mg rat liver microsomes (20 mg/ml, Cat. No: LM-DS-02M, Lot. No: BDVH, Research Institute for liver Diseases, Shanghai, China), 2 μM LLDT-8, 5 mM MgCl2, 1 mM NADPH (Cat. No: 10107824001, Lot. No: 20595625, Sigma, USA) and selective inhibitors of each CYP isoforms in a 100 mM phosphate buffer (pH 7.4). The inhibitors used were as follows: quercetin (2 μM) for CYP1A and CYP2C8, 8-methoxypsoralen (2.5 μM) for CYP2A6, sulfaphenazole (10 μM) for CYP2C9, omeprazole (20 μM) for CYP2C19, quinidine (10 μM) for CYP2D6, clomethiazole (50 μM) for CYP2E1, ketoconazole (1 μM) for CYP3A4 and aminobenzotriazole (50 μM, a broad CYP inhibitor) (Tsyrlov et al., [1994]; Li et al., [2008]). After incubation for 0, 0.5, and 1 h, 100 μl supernatant was collected and quenched by the addition of 100 μl of ice-cold acetonitrile. The mixtures were then centrifuged for 10 min at 20,000 × g. An aliquot of the supernatant was analyzed by LC-MS/MS to monitor the residual LLDT-8 without extraction."}
{"smiles": "CC(=O)N1CCN(c2ccc(OCC3COC(Cn4ccnc4)(c4ccc(Cl)cc4Cl)O3)cc2)CC1", "note": "(stereo not drawn) [ketoconazole]", "effect of CYP inhibitor on the metabolism of LLDT-8": "inhibited"}
{"smiles": "COc1ccc2[nH]c([S+]([O-])Cc3ncc(C)c(OC)c3C)nc2c1", "note": "(stereo not drawn) [omeprazole]", "effect of CYP inhibitor on the metabolism of LLDT-8": "inhibited"}
{"smiles": "Cc1ncsc1CCCl", "note": "[clomethiazole]", "effect of CYP inhibitor on the metabolism of LLDT-8": "inhibited; also recorded: seems to completely inhibit"}
{"smiles": "Nn1nnc2ccccc21", "note": "[aminobenzotriazole]", "effect of CYP inhibitor on the metabolism of LLDT-8": "inhibited"}
{"smiles": "C=C[C@H]1C[N@@]2CC[C@H]1C[C@@H]2[C@@H](O)c1ccnc2ccc(OC)cc12", "note": "[quinidine]", "effect of CYP inhibitor on the metabolism of LLDT-8": "inhibited"}
{"system": "mice testes", "assay": "Testicular toxicity comparison between triptolide and LLDT-8 (15 days by gavage, H&E)", "type": "in vivo, mouse", "conditions": "0.25 mg/kg and 0.5 mg/kg by gavage for 15 days", "experimental": "For toxicity experiments, mice (n = 3 for each group) were treated with tritpilide (0.125, 0.25, 0.5mg/kg), LLDT-8 (0.125, 0.25, 0.5mg/kg) consecutively administered by gavage for 15 days. The control group received saline. Mice were sacrificed on the 15th day post-administration and blood, liver, kidney, spleen, testis and epididymis were collected. The main lobe of liver, kidney, spleen and epididymis were fixed in 10% neutral buffered formalin for histological examination, the left testicle was fixed in Davidson’s buffer for 16 hours followed by 10% neutral buffered formalin. Tissue sections were stained with hematoxylin and eosin (H&E). Remaining tissues were stored at -80 °C for RNA and protein extraction.\nSupplementary Figure S1 Comparison of testicular toxicity between triptolide(TL) and LLDT-8. Mice (n=3) were weighted before sacrificed on the 15th day post-administration of triptolide, LLDT-8 or saline. The testes were collected and weighted. […] (G-H) Comparison of epididymis weight between triptolide and LLDT-8. Significant difference was determined by one-way Anova, mean ± SD. * p<0.05, *** p<0.001 vs Saline group. # p<0.05, ## p<0.01, ### p<0.001 vs T8 group at the same dosage."}
{"smiles": "CC(C)[C@]12O[C@H]1[C@@H]1O[C@]13[C@]1(O[C@H]1C[C@H]1C4=C(CC[C@@]13C)C(=O)OC4)[C@@H]2O", "note": "[triptolide]", "testis morphology (H&E)": "induced severe testicular injury"}
